Patent US6172262A, “Amphiphilic agents for membrane protein solubilization” (priority 1999, dated 2001)
≈ marks a conversion by molar mass, not a printed value. Read-outs that look alike come from different tables or passages of the source. Each block holds one compound with its values, some of them ahead of it.

Legend:
[1] = comparison detergent, source not given; cited from earlier work
[2] = CMC values of conventional detergents quoted for comparison; assay type: physicochemical
[3] = molecular target: T1, Bacteriorhodopsin (BR) (Halobacterium salinarum, UniProt P02945); details: reported detergents; cited from earlier work
T1 construct: We used BR solubilization from the PM to evaluate tripod detergents; endogenous in cells
T1 sequence (P02945 14-261 limits assumed): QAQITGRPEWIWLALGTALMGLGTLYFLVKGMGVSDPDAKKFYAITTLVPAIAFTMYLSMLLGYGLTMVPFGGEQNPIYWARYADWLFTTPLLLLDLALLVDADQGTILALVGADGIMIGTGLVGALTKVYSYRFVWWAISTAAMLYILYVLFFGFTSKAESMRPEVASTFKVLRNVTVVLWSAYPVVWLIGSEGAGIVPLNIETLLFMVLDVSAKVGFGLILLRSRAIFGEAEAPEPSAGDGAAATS

[4] = CMC by dye uptake (orange OT); assay type: physicochemical
Description: Triphenylacetic acid 4.0 has a novel amphiphilic geometry and is commercially available.
The addition of the t-butyl group accomplished the goal of increasing the hydrophobic surface area, as indicated by the diminished CMC's.
The CMC of a detergent can be determined experimentally by measuring the solubilization of a water-insoluble dye or fluorophore while varying the concentration of detergent. CMC may also be determined by measuring the diminution of the surface tension of an aqueous solution as a function of detergent concentration. (CMC's determined by either method correlate with each other.) The CMC is determined by extrapolating the plot of solubilization vs. concentration (or surface tension vs. concentration) in the two linear regions above and below the CMC. Where the two lines intersect is the CMC. In this Example, CMC's were determined by the method of Nugebauer, J. M. (1990), Methods in Enzymology, 182:239-253: […]

[5] = Aqueous solubility; assay type: physicochemical; details: water
[6] = molecular target: T1, Bacteriorhodopsin (BR); experiment: Solubilization of bacteriorhodopsin (BR) from purple membrane (PM)
Description: We used BR solubilization from the PM to evaluate tripod detergents synthesized using the modular synthetic approach described above. The retinal chromophore of BR allowed us to quantify solubilized material by UV. Solubilized BR is defined as the intact protein left in the supernatant after a sample is centrifuged for 30 minutes at 300,000 g. The percent BR solubilized is determined by dividing the absorbance of the supernatant by the absorbance of the solution before centrifugation.
Solubilization experiments were conducted by making a series of solutions with constant concentration of PM and varying the concentration of detergent. […] The absorbance at the λmax (between 540 nm and 570 nm) was then measured, and immediately afterward the samples were centrifuged for 30 minutes at 300,000 g. The supernatant was carefully removed so as not to disturb pelleted material. Absorbance measurements were made again, and the ratio of the supernatant absorbance to the absorbance before centrifugation provided the percent solubilization.

Compound: Br.CCCCCCCCCCCCN [dodecylammonium bromide]
CMC [1]: 15 mM | CMC ratio, dodecylammonium bromide vs N-oxide analog (LDAO) [2]: > 7 times larger

Compound: CCCCCCCCO[C@@H]1O[C@H](CO)[C@@H](O)[C@H](O)[C@H]1O [OG]
removal of BR from the purple membrane (in words) [3]: successfully remove BR from its native environment

Compound: CCCCCCCCCO[C@@H]1O[C@H](CO)[C@@H](O)[C@H](O)[C@H]1O [nonyl glucoside (NG), nonyl glucoside]
removal of BR from the purple membrane (in words) [3]: successfully remove BR from its native environment

Compound: CCCCCCCCCCCC[N+](C)(C)[O-] [DDAO, dodecylammonium-N-oxide]
CMC [1]: 10.4 mM

CMC ([4]; orange OT uptake): 130 mM | solubility ([5]; read-out: solubility): 210 mM (≈ 60.6 mg/mL)
Compound: O=C(O)C(c1ccccc1)(c1ccccc1)c1ccccc1 [Detergent 4.1]

Compound: Triton X-100 [reference compound]
removal of BR from the purple membrane (in words) [3]: successfully remove BR from its native environment | BR solubilization (in words) [6]: effective at solubilizing BR | time to solubilize BR ([6]; pH 5): 49 h | time to solubilize BR ([6]; pH 6.9): 24 h

CMC ([4]; dye uptake): about 80 mM | solubility in water (in words) [5]: very soluble in water | solubility ([5]; read-out: solubility in water): > 2000 mM
Compound: C[N+](C)([O-])CCN(CC[N+](C)(C)[O-])C(=O)CC(c1ccccc1)(c1ccccc1)c1ccccc1 [Detergent 4.10]

CMC ([4]; dye uptake): about 12.5 mM
Compound: CC(C)(C)c1ccc(C(CC(=O)N(CC[N+](C)(C)[O-])CC[N+](C)(C)[O-])(c2ccccc2)c2ccccc2)cc1 [Detergent 4.20]
